Measurements as given in publication PMC3679022, “A Cancer Specific Cell-Penetrating Peptide, BR2, for the Efficient Delivery of an scFv into Cancer Cells” (PLoS ONE, 2013).

What was measured:
[1] = test system: HCT116 cells (K-ras mutated cells); test: Cell proliferation assay (MTT); assay type: cell-based, human; set-up: dose or concentration left out as unconfirmed; conditions: same concentrations as fusion proteins (Fig. S4:), 24 h
Description: To assess the anti-proliferative activity of peptides and anti-Ras scFv fusion proteins, HCT116 cells (K-ras mutated cells) were seeded in 96-well plates at a density of 2×10^4 cells/well in 100 µL of DMEM supplemented with 10% FBS and cultured for 24 h at 37°C. […] Cell viability was measured with the 3-(4,5-dimethylthiazol-2-yl)-2,5-diphenyl tetrazolium bromide (MTT) assay using the CellTiter 96® Non-radioactive Cell Proliferation assay kit (Promega, Madison, WI) according to the manufacturer’s instructions. The absorbance of the solution was measured at 570 nm using a Microplate Reader (Bio-Rad). Cell viability was expressed as the percentage of viable cells treated with scFv or peptide-scFv fusion proteins compared to the PBS-treated control (100%). All experiments were done in triplicate.
Figure 4 Intracellular uptake of peptides and anti-Ras scFv fusion proteins and their anti-proliferative activity. […] (B) Protein uptake was analyzed by Western blotting of fractionated lysates from HCT116 cells treated with PBS, anti-Ras scFv, BR2- or Tat-scFv fusion protein (each, 2 µM) at 37°C for 2 h. […] Cell proliferation was determined using the MTT assay. […]
HCT116 cells were seeded in 96-well plates at a density of 2×10^4 cells/well in 100 μl of DMEM supplemented with 10% FBS and cultured for 24 h at 37°C. […] The absorbance of the solution was measured at 570 nm using a Microplate Reader (Bio-Rad). […]

[2] = test system: normal cells (HaCat, BJ and NIH 3T3); test: Confocal laser scanning microscopy of FITC-labeled peptide uptake, normal cells; assay type: cell-based, human, mouse; conditions: FITC-labeled peptide 5 µM, 30 min, 37°C, live unfixed cells
Description: To investigate the cell-penetrating ability and the intracellular distribution of the internalized peptides, live confocal microscopy was performed on three cancer lines (HeLa, HCT116 and B16/F10) and three normal cell lines (HaCat, BJ and NIH 3T3). Briefly, cells (2×10^5) were plated on a glass coverslip placed in a 6-well plate, grown overnight, and then incubated with FITC-labeled peptides (5 µM for each cell line) for 30 min. The cells were then rinsed three times with phosphate buffered saline (PBS, pH 7.4), and mounted on microscope slides with fluorescence mounting solution (Dako Corp, Carpinteria, CA). Colocalization of BR2 with lysosomes was observed by using LysoTracker Red DND-99 (Molecular Probe, Eugene, OR). To avoid the effects of fixation artifacts, involving both methanol and paraformaldehyde, cells were not fixed, [27]. The distribution of FITC-labeled peptides was analyzed using a confocal scanning laser Zeiss LSM 510 microscope (Jena, Germany) equipped with a 40× and 20× objective. Fluorophores were excited with an argon laser (488 nm) for FITC and a HeNe laser (543 nm) for LysoTracker Red.
(B,C) In vitro cytotoxicity of peptides.

[3] = test system: normal cell lines (HaCat, BJ and NIH 3T3); test: In vitro cytotoxicity assay (LDH leakage), normal cell lines; conditions: 24 h, 37°C
Description: The cytotoxicity of peptides to mammalian cells was investigated by assessing the release of lactate dehydrogenase (LDH) from cancer and normal cells. The amount of LDH released from damaged cells into the supernatant was measured using the Cytotoxicity Detection Kit (Roche Applied Science, Germany) according to the manufacturer’s instructions. In brief, cells were plated onto 96-well microplates (1×10^4 cells per well) in complete DMEM supplemented with 10% FBS and incubated overnight at 37°C to allow for attachment and spreading of cells. After 24 h of incubation, cells were treated with various concentrations of peptides (0–100 µM) and incubated for another 24 h at 37°C. The extracellular medium from each well was transferred to a new microplate and incubated for 10 min with 100 µl/well reaction mixture, followed by a stop solution. Absorbance was measured at 490 nm by using an ELISA plate reader. LDH release from cells lysed with 0.2% Triton X-100 in PBS was defined as 100% leakage and LDH release from untreated cells as 0% leakage.
(B,C) In vitro cytotoxicity of peptides. (B) Membrane disturbance was measured by lactate dehydrogenase (LDH) leakage from the indicated cell lines 24 h after peptide treatment. LDH leakage from cells seeded in a 96-well plate at 10,000 cells/well was measured after exposure to 1, 2, 5, 10, 20, 50 or 100 µM peptides for 24 h. […]

[4] = test system: normal cells (HaCat, BJ and NIH 3T3); test: Flow cytometry of FITC-labeled peptide uptake, normal cells; assay type: cell-based, human, mouse; conditions: FITC-labeled peptide 10 µM, 30 min, 37°C, trypsin 1 mg/ml 10 min before FACS, 10,000 events
Description: To evaluate the internalization of FITC-labeled peptides, HeLa cells were seeded onto 12-well plates at a density of 2×10^5 cells per well and incubated for 24 h. FITC-labeled peptides, at various concentrations ranging from […], were then incubated with the cells for 30 min at 37°C. To compare the cellular uptake of peptides, cancer and normal cells were treated with FITC-labeled peptides (each, 10 µM) and incubated for 30 min at 37°C. Following the incubation, cells were washed three times with ice-cold PBS to remove excess extracellular complexes. Next, the cells were treated with trypsin (1 mg/ml) for 10 min to remove any remaining peptides bound to the cell surface. After trypsinization, the cells were collected by centrifugation (1,000×g for 5 min), resuspended with 500 µl ice-cold 2% FBS/PBS containing propidium iodide (PI), and then immediately analyzed (10,000 events/sample) by fluorescence activated cell sorting (FACS).
For all of these experimental conditions, flow cytometry analyses were performed with live cells using a Becton Dickinson FACSCalibur flow cytometer (BD Biosciences, San Diego, CA). In each case, the fluorescence of 10,000 viable cells was acquired. Viable cells were gated based on a sideward and forward scatter. […] The statistical significance was evaluated by Student’s t-test at a 95% confidence interval. […]

RAGLQFPVGRLLRRLLR [BR2] was tested, and the “anti-proliferative activity of peptide alone” value [1] was “did not show any detectable inhibitions”, the “cellular uptake (confocal microscopy)” value [2] was “very poorly internalized” and the LDH leakage ([3]; 100 µM peptide, 0.2% Triton X-100 = 100%, n = 3) was ~17%. For the same sequence, the LDH leakage ([3]; peptide concentrations below 70 µM) was “not detected” and the “percentage of fluorescence-positive cells (cells that internalized peptide)” value [4] was 23–34%.
